# Tested on: NIH3T3
# Assay: Antiproliferative activity against mouse 3T3 cells expressing human CSF1R after 72 hrs by Celltiter assay
# Format: functional
# Conditions: not given
row,Structure (SMILES),Activity [µM]
1,CCOc1cc2ncc(C(N)=O)c(Nc3cccc(Cl)c3Cl)c2cc1N1CCN(C(C)C)CC1,0.02
2,COCCOc1cc2ncc(C(N)=O)c(Nc3cccc(Cl)c3Cl)c2cc1N1CCN(C)CC1,0.01
3,CCOc1cc2ncc(C(N)=O)c(Nc3cccc(Cl)c3Cl)c2cc1N1CCN(C(C)=O)CC1,0.07
4,CC(C)Oc1cc2ncc(C(N)=O)c(Nc3ccc(F)cc3F)c2cc1N1CCN(C)CC1,0.17

# Tested on: not listed separately
# Assay: Aqueous solubility of the compound
# Format: physicochemical
# Conditions: buffer
row,Structure (SMILES),solubility [µM]
1,CCOc1cc2ncc(C(N)=O)c(Nc3ccc(F)cc3F)c2cc1N1CCCN(C)CC1,530
2,CCOc1cc2ncc(C(N)=O)c(Nc3cccc(Cl)c3Cl)c2cc1N1CCN(C(C)C)CC1,250
3,CCOc1cc2ncc(C(N)=O)c(Nc3cccc(Cl)c3Cl)c2cc1N1CCN(C(C)=O)CC1,2
4,CC(C)Oc1cc2ncc(C(N)=O)c(Nc3ccc(F)cc3F)c2cc1N1CCN(C)CC1,52

# The remaining lines, values ahead:
row,solubility [µM],Structure (SMILES)
1,63,COCCOc1cc2ncc(C(N)=O)c(Nc3ccc(C)cc3F)c2cc1N1CCN(C)CC1
2,720,COCCOc1cc2ncc(C(N)=O)c(Nc3ccc(F)cc3F)c2cc1N1CCN(C)CC1
3,380,COCCOc1cc2ncc(C(N)=O)c(Nc3cccc(Cl)c3Cl)c2cc1N1CCN(C)CC1

# Tested on: not listed separately
# Assay: Plasma protein binding assessed as percentage unbound
# Conditions: not given
row,Structure (SMILES),fraction unbound
1,CCOc1cc2ncc(C(N)=O)c(Nc3ccc(F)cc3F)c2cc1N1CCCN(C)CC1,0.31
2,CCOc1cc2ncc(C(N)=O)c(Nc3cccc(Cl)c3Cl)c2cc1N1CCN(C(C)C)CC1,0.015
3,CCOc1cc2ncc(C(N)=O)c(Nc3cccc(Cl)c3Cl)c2cc1N1CCN(C(C)=O)CC1,0.096
4,CC(C)Oc1cc2ncc(C(N)=O)c(Nc3ccc(F)cc3F)c2cc1N1CCN(C)CC1,0.017

# The remaining lines, values ahead:
row,fraction unbound,Structure (SMILES)
1,0.16,COCCOc1cc2ncc(C(N)=O)c(Nc3ccc(C)cc3F)c2cc1N1CCN(C)CC1
2,0.46,COCCOc1cc2ncc(C(N)=O)c(Nc3ccc(F)cc3F)c2cc1N1CCN(C)CC1
3,0.1,COCCOc1cc2ncc(C(N)=O)c(Nc3cccc(Cl)c3Cl)c2cc1N1CCN(C)CC1

# Tested on: not listed separately
# Assay: Bioavailability in rat at 3 mg/kg, iv and 10 mg/kg, po
# Format: ADME, organism-based
# Conditions: in vivo
row,Structure (SMILES),bioavailability [%]
1,CCOc1cc2ncc(C(N)=O)c(Nc3ccc(F)cc3F)c2cc1N1CCCN(C)CC1,16
2,CCOc1cc2ncc(C(N)=O)c(Nc3cccc(Cl)c3Cl)c2cc1N1CCN(C(C)C)CC1,66
3,CCOc1cc2ncc(C(N)=O)c(Nc3cccc(Cl)c3Cl)c2cc1N1CCN(C(C)=O)CC1,11
4,CC(C)Oc1cc2ncc(C(N)=O)c(Nc3ccc(F)cc3F)c2cc1N1CCN(C)CC1,40

# Continued, values first:
row,bioavailability [%],Structure (SMILES)
1,100,COCCOc1cc2ncc(C(N)=O)c(Nc3ccc(C)cc3F)c2cc1N1CCN(C)CC1
2,100,COCCOc1cc2ncc(C(N)=O)c(Nc3ccc(F)cc3F)c2cc1N1CCN(C)CC1
3,32,COCCOc1cc2ncc(C(N)=O)c(Nc3cccc(Cl)c3Cl)c2cc1N1CCN(C)CC1

# Tested on: not listed separately
# Assay: Clearance in rat at 3 mg/kg, iv and 10 mg/kg, po
# Format: ADME, organism-based
# Conditions: in vivo
row,Structure (SMILES),clearance [mL/min/kg]
1,CCOc1cc2ncc(C(N)=O)c(Nc3ccc(F)cc3F)c2cc1N1CCCN(C)CC1,32
2,CCOc1cc2ncc(C(N)=O)c(Nc3cccc(Cl)c3Cl)c2cc1N1CCN(C(C)C)CC1,120
3,CCOc1cc2ncc(C(N)=O)c(Nc3cccc(Cl)c3Cl)c2cc1N1CCN(C(C)=O)CC1,62
4,CC(C)Oc1cc2ncc(C(N)=O)c(Nc3ccc(F)cc3F)c2cc1N1CCN(C)CC1,7

# Second part, the molecule after the results:
row,clearance [mL/min/kg],Structure (SMILES)
1,33,COCCOc1cc2ncc(C(N)=O)c(Nc3ccc(C)cc3F)c2cc1N1CCN(C)CC1
2,68,COCCOc1cc2ncc(C(N)=O)c(Nc3ccc(F)cc3F)c2cc1N1CCN(C)CC1
3,290,COCCOc1cc2ncc(C(N)=O)c(Nc3cccc(Cl)c3Cl)c2cc1N1CCN(C)CC1

# Tested on: not listed separately
# Assay: Volume of distribution at steady state in rat at 3 mg/kg, iv and 10 mg/kg, po
# Format: ADME, organism-based
# Conditions: in vivo, read-out: Vdss
row,Structure (SMILES),Vd [L/kg]
1,CCOc1cc2ncc(C(N)=O)c(Nc3ccc(F)cc3F)c2cc1N1CCCN(C)CC1,16
2,CCOc1cc2ncc(C(N)=O)c(Nc3cccc(Cl)c3Cl)c2cc1N1CCN(C(C)C)CC1,11
3,CCOc1cc2ncc(C(N)=O)c(Nc3cccc(Cl)c3Cl)c2cc1N1CCN(C(C)=O)CC1,2.3
4,CC(C)Oc1cc2ncc(C(N)=O)c(Nc3ccc(F)cc3F)c2cc1N1CCN(C)CC1,1.4

# The next lines start with the values.
row,Vd [L/kg],Structure (SMILES)
1,8.6,COCCOc1cc2ncc(C(N)=O)c(Nc3ccc(C)cc3F)c2cc1N1CCN(C)CC1
2,18,COCCOc1cc2ncc(C(N)=O)c(Nc3ccc(F)cc3F)c2cc1N1CCN(C)CC1
3,21,COCCOc1cc2ncc(C(N)=O)c(Nc3cccc(Cl)c3Cl)c2cc1N1CCN(C)CC1

# Tested on: not listed separately
# Assay: Half life in rat at 3 mg/kg, iv and 10 mg/kg, po
# Format: ADME, organism-based
# Conditions: in vivo
row,Structure (SMILES),half-life [h]
1,CCOc1cc2ncc(C(N)=O)c(Nc3ccc(F)cc3F)c2cc1N1CCCN(C)CC1,6.6
2,CCOc1cc2ncc(C(N)=O)c(Nc3cccc(Cl)c3Cl)c2cc1N1CCN(C(C)C)CC1,1.2
3,CCOc1cc2ncc(C(N)=O)c(Nc3cccc(Cl)c3Cl)c2cc1N1CCN(C(C)=O)CC1,0.65
4,CC(C)Oc1cc2ncc(C(N)=O)c(Nc3ccc(F)cc3F)c2cc1N1CCN(C)CC1,2.3

# Next, values leading:
row,half-life [h],Structure (SMILES)
1,3.4,COCCOc1cc2ncc(C(N)=O)c(Nc3ccc(C)cc3F)c2cc1N1CCN(C)CC1
2,3.8,COCCOc1cc2ncc(C(N)=O)c(Nc3ccc(F)cc3F)c2cc1N1CCN(C)CC1
3,0.83,COCCOc1cc2ncc(C(N)=O)c(Nc3cccc(Cl)c3Cl)c2cc1N1CCN(C)CC1

# Tested on: Mus musculus
# Assay: Inhibition of phosphorylated CSF1R level in 3T3/CSF1R mutant cells xenografted nude mouse at 25 mg/kg, po after 2 hrs by ELISA
# Format: functional
# Conditions: not given
row,Structure (SMILES),inhibition in vivo at 25 mg/kg [%]
1,COCCOc1cc2ncc(C(N)=O)c(Nc3ccc(C)cc3F)c2cc1N1CCN(C)CC1,100
2,CCOc1cc2ncc(C(N)=O)c(Nc3ccc(F)cc3F)c2cc1N1CCCN(C)CC1,90
3,COCCOc1cc2ncc(C(N)=O)c(Nc3ccc(F)cc3F)c2cc1N1CCN(C)CC1,100
4,CCOc1cc2ncc(C(N)=O)c(Nc3cccc(Cl)c3Cl)c2cc1N1CCN(C(C)C)CC1,85
5,COCCOc1cc2ncc(C(N)=O)c(Nc3cccc(Cl)c3Cl)c2cc1N1CCN(C)CC1,100
6,CCOc1cc2ncc(C(N)=O)c(Nc3cccc(Cl)c3Cl)c2cc1N1CCN(C(C)=O)CC1,65
7,CC(C)Oc1cc2ncc(C(N)=O)c(Nc3ccc(F)cc3F)c2cc1N1CCN(C)CC1,100

# Tested on: Mus musculus
# Assay: Inhibition of phosphorylated CSF1R level in 3T3/CSF1R mutant cells xenografted nude mouse at 25 mg/kg, po after 6 hrs by ELISA
# Format: functional
# Conditions: not given
row,Structure (SMILES),inhibition in vivo at 25 mg/kg [%]
1,COCCOc1cc2ncc(C(N)=O)c(Nc3ccc(C)cc3F)c2cc1N1CCN(C)CC1,80
2,CCOc1cc2ncc(C(N)=O)c(Nc3ccc(F)cc3F)c2cc1N1CCCN(C)CC1,55
3,COCCOc1cc2ncc(C(N)=O)c(Nc3ccc(F)cc3F)c2cc1N1CCN(C)CC1,70
4,CCOc1cc2ncc(C(N)=O)c(Nc3cccc(Cl)c3Cl)c2cc1N1CCN(C(C)C)CC1,65
5,COCCOc1cc2ncc(C(N)=O)c(Nc3cccc(Cl)c3Cl)c2cc1N1CCN(C)CC1,80
6,CCOc1cc2ncc(C(N)=O)c(Nc3cccc(Cl)c3Cl)c2cc1N1CCN(C(C)=O)CC1,30
7,CC(C)Oc1cc2ncc(C(N)=O)c(Nc3ccc(F)cc3F)c2cc1N1CCN(C)CC1,50
